The results in this text go back to US20080161307A1, “Organic Compounds” (priority 2005, published 2008).

In this assay the test system is healthy male volunteers. The assay is described as follows: Randomized, double-blind, placebo-controlled gastric emptying study (99Tc radiolabeled meal, external scintigraphy). Format: in vivo, human. The procedure: Methodology: This is a single center, double-blind, randomized, parallel group trial using a placebo control or tegaserod 6 mg t.i.d. in combination with omeprazole 20 mg b.i.d. Gastric emptying is assessed using a standardized method that has been previously validated and found to be sensitive and specific. After an overnight fast, the subjects are asked to ingest a standardized ^99Tc radiolabeled meal (250 ml EggBeater, the equivalent of two eggs, two slices of white bread, 30 cc of strawberry jam and 120 ml of water). The level of radioactivity in gastric contents is measured by external scintigraphy immediately following completion of the meal and then at 60, 120 and 240 minutes after the end of the meal.
Number of subjects: 40 healthy male volunteers (20 per group)
Investigational drug: Tegaserod 6 mg tablets (supplied by Novartis Canada, but are normal 6 mg Zelnorm tablet obtainable as prescription) for oral administration. Each dose consists of a tablet to be taken with a glass of water within 15-30 minutes before mealtime three times daily. […]
Efficacy: The primary efficacy parameter is time to half emptying (T1/2) of gastric contents. The secondary efficacy endpoints were the calculated lag phase, and percent of gastric contents remaining in the stomach at 60, 120 and 240 minutes after ingestion of a standard meal. […]

With `CCCCCNC(=N)N/N=C/c1c[nH]c2ccc(OC)cc12` [tegaserod, 3-(5-methoxy-1H-indol-3-yl-methylene)-N-pentylcarbazimidamide], the “gastric emptying at all the studied time points versus baseline” value (tegaserod 6 mg t.i.d. in combination with omeprazole 20 mg b.i.d., oral, 14 days) is reported as “not statistically different from the respective baseline values”. Where the note is “tegaserod added to omeprazole, healthy male volunteers”, the “development of delayed gastric emptying caused by omeprazole” value was “prevented development of delayed gastric emptying”.
